Assay results: patent US20220031657A1 (NOVARTIS AG, priority 2017, published 2022)
Marks after values point to notes of the source that are not given here.

Tests used:
MCF-7 cell line = experiment: Insulin driven proliferation assay; type: cell-based, human
MCF-7 xenograft [1] = experiment: Orthotopic MCF-7 xenograft model in NSG mice; type: in vivo; settings: for anti-tumor effect in words: LSZ102 20 mg/kg QD, tamoxifen 60 mg/kg, fulvestrant 5 mg/mouse
HBRX1298 xenograft = experiment: ER+ primary breast cancer model HBRX1298 in NSG mice; type: in vivo; settings: 5 mg/mouse SC QWeek, Day 63
MCF-7 xenograft [2] = experiment: Dose fractionation study in mice with MCF-7 xenografts; type: in vivo; settings: 5 mg/mouse SC QWeek, Day 61
ERα = molecular target: T1, ERα (Homo sapiens, UniProt P03372); experiment: Immunoblot ERα protein quantification, MCF-7 parental cells; settings: 24 hr
T1 sequence (P03372 1-595): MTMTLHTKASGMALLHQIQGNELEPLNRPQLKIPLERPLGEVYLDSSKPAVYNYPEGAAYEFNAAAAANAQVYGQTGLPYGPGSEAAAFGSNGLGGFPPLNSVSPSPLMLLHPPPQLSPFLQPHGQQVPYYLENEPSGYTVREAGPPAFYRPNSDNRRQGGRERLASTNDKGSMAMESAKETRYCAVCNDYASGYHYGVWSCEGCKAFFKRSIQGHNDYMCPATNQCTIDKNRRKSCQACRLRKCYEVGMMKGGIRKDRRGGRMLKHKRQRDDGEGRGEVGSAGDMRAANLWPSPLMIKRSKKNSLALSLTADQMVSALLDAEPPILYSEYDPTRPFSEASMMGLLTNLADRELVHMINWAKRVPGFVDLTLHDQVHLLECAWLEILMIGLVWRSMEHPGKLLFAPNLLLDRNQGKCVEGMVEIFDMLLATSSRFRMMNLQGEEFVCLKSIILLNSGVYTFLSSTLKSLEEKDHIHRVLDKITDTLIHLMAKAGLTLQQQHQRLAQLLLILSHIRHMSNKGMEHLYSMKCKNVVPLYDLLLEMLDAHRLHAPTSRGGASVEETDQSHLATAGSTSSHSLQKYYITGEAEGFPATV

| ER protein levels (ERα) | Compound | effect in insulin driven proliferation assay (MCF-7 cell line) | anti-tumor effect in words (MCF-7 xenograft [1]) | ΔT/ΔC (%) (MCF-7 xenograft [1]; 5 mg/mouse SC QWeek, Day 48) | ΔT/ΔC (%) (HBRX1298 xenograft) | ΔT/ΔC (%) (MCF-7 xenograft [2]) |
| --- | --- | --- | --- | --- | --- | --- |
| – | CC/C(=C(\c1ccccc1)c1ccc(OCCN(C)C)cc1)c1ccccc1 [Tamoxifen] | unaffected | tumor stasis | – | – | – |
| significantly reduce ER protein levels | C[C@]12CC[C@@H]3c4ccc(O)cc4C[C@@H](CCCCCCCCC[S+]([O-])CCCC(F)(F)C(F)(F)F)[C@H]3[C@@H]1CC[C@@H]2O (some centres unmarked) [Fulvestrant] | inhibited | suppression of growth | 24* % | 48* % | 18* % |
